Data: the NIST ThermoML archive (doi:10.1016/j.fluid.2014.09.016)
± gives the expanded uncertainty stated by the source.

Conditions: 298.15 K; 101.33 kPa; Liquid; Pycnometric method

Row | SMILES | mass density [kg/m3]
1 | CCOP(=O)([O-])OCC.CCn1cc[n+](C)c1 [1-ethyl-3-methylimidazolium diethyl phosphate] | 1146.1 ± 1.4
2 | COP(=O)([O-])OC.Cn1cc[n+](C)c1 [1,3-dimethylimidazolium dimethylphosphate] | 1257.8 ± 1.6
